From patent publication US6194396A, “Benzimidazole compounds as bradykinin antagonists” (Fujisawa Pharmaceutical Co., Ltd., priority 1994, dated 2001)
Structures can show the parent of a compound that is named as a salt.

molecular target: T1, Bradykinin receptor (Cavia porcellus, UniProt O70526); assay: 3H-Bradykinin receptor binding (crude ileum membrane); parameters: species or system guinea pig (male Hartly strain); conditions: concentration: 1 × 10^-5 M; 0.06 nM 3H-Bradykinin; guinea pig ileum membrane; room temperature, 60 minutes
T1 construct: The ileum was removed and homogenized in buffer; from tissue; host or cells: guinea pig ileum, crude membrane suspension (male Hartley strain, given 'Hartly' in the source)
T1 sequence (O70526 1-372): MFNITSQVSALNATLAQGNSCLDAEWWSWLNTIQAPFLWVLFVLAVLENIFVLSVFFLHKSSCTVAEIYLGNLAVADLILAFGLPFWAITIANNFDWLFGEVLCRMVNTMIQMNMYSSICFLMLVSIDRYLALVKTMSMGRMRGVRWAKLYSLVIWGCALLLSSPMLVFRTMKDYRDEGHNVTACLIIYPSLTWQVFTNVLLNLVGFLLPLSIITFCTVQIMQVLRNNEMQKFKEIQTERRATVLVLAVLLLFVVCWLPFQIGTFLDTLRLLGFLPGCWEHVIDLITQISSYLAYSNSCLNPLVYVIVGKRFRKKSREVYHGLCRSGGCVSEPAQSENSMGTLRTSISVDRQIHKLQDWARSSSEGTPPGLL
Description: ^3 H-Bradykinin receptor binding
(a) Crude ileum membrane preparation
Male Hartly strain guinea pigs were sacrificed by decapitation. The ileum was removed and homogenized in buffer (50 mM trimethylaminoethanesulfonic acid (TES), 1 mM 1,10-phenanthroline pH 6.8). The homogenate was centrifuged (1000 xg, 20 minutes) to remove tissue clumps and the supernatant was centrifuges (100,000 xg, 60 minutes) to yield a pellet. The pellet was resuspended in buffer (50 mM TES, 1 mM 1,10-phenanthroline,140 mg/l bacitracin, 1 mM dithiothreiol, 0.1% bovine serum albumin pH 6.8) and homogenized with a glass-teflon homogenizer to yield suspension which was referred to as crude membrane suspension. The obtained membrane suspension was stored at -80° C. until use.
(b) ^3 H-Bradykinin binding to the membrane
The frozen crude membrane suspension was thawed. In binding assays, ^3 H-Bradykinin (0.06 nM) and drug (1×10^-5 M) were incubated with 50 μl of the membrane suspension at room temperature for 60 minutes in a final volume of 250 μl. Separation of receptor-bound from free 3H-Bradykinin is achieved by immediate filtration under vacuum and washed three times with 5 ml of ice-cold buffer (50 mM Tris-HCl pH 7.5). Non-specific binding was defined as binding in the presence of 0.1 μM Bradykinin. The radioactivity retained on rinsed filters was determined by a liquid-scintillation counter.

Going from CNC(=O)c1ccc(/C=C/C(=O)NCC(=O)N(C)c2ccc(C)c(COc3cccc4c3nc(C(C)=O)n4C)c2C)cc1 [15-(9) hydrochloride] to CNC(=O)c1ccc(/C=C/C(=O)NCC(=O)N(C)c2ccc(Cl)c(COc3cccc4c3nc(C)n4C)c2Cl)cc1 [Example 7, 4-[2,6-dichloro-3-[N-methyl-N-[4-(methyl-carbamoyl)cinnamoylglycy]amino]benzyloxy]-1,2-dimethyl-1H-benzimidazole], the “Inhibition % of ^3 H-Bradykinin binding” value rises from 94% to 99%.

For CNC(=O)c1ccc(/C=C/C(=O)NCC(=O)N(C)c2ccc(Cl)c(COc3cccc4c(C)c(C)oc34)c2Cl)cc1 [15-(20), 7-[2,6-Dichloro-3-[N-[4-(methylcarbamoyl)cinnamoylglycyl]-N-methylamino]benzyloxy]-2,3-dimethylbenzofuran], the “Inhibition % of ^3 H-Bradykinin binding” value was 98%.
